Laboratory results reported in patent publication US12466821B2 (Novartis AG, priority 2018, dated 2025).
Where two headings read alike, the source gives them in different places.

Legend:
[1] = target: human CMV DNA polymerase UL54 (Human cytomegalovirus (strain AD169) (HHV-5) (Human herpesvirus 5), UniProt P08546); experiment: CMV polymerase biochemical assay (molecular beacon-based)
Outline: (§1)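 Full-length wild-type N-terminal MBP-fusion polymerases from sf9 cells were used at 100 pM (CMV) or 625 pM (HSV) in Tris pH 7.5, 10 mM MgCl2, and preincubated with inhibitor for 30 min at RT. Reactions with 1.25 uM each dNTP, 200 nM primer and 100 nM molecular beacon ran 60 min (CMV) or 20 min (HSV) at RT. Fluorescence was read at 480/535 nm and IC50 derived.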

[2] = target: human HSV DNA polymerase UL30 (Human herpesvirus 1 (strain 17) (HHV-1) (Human herpes simplex virus 1), UniProt P04293); experiment: HSV polymerase biochemical assay (molecular beacon-based)
Outline: as §1

[3] = tested on: Luciferase-encoding HCMV, AD169 strain; experiment: CMV Luciferase assay (cellular herpesvirus replication); type: cell-based
Outline: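 Reporter HCMV AD169 with luciferase driven by late pp28 promoter, so signal requires viral DNA replication; NN-NHDF fibroblasts in 2% FBS medium, compound (0.0159–50 or 0.00318–10 μM, 0.5% DMSO) added 1 h before infection at MOI 1. Luminescence read 72 hpi; EC50 from 4-parameter fit of control-normalized %.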

[4] = Human betaherpesvirus 5, AD169, read-out: CMV-Luc Cellular EC50

| SMILES | IC50 [1] [µM] | IC50 [2] [µM] | EC50 [3, 4] [µM] | EC50 ([3]; read-out: CMV-Luc Cellular EC50) [µM] |
| --- | --- | --- | --- | --- |
| N#Cc1ccc(CNC(=O)c2ccc3n(c2=O)CCN(CC2CCCS2(=O)=O)C3=O)cc1F (stereo not drawn) [Example 82, N-(4-cyano-3-fluorobenzyl)-2-((1,1-dioxidotetrahydrothiophen-2-yl)methyl)-1,6-dioxo-2,3,4,6-tetrahydro-1H-pyrido[1,2-a]pyrazine-7-carboxamide] | 1.09 | 20.9 | 10 | – |
| N#Cc1ccc(CNC(=O)c2ccc3n(c2=O)CCN(CC2(S(=O)(=O)C4(O)CC4)CC2)C3=O)cc1 [Example 196, N-(4-cyanobenzyl)-2-((1-((1-hydroxycyclopropyl)sulfonyl)cyclopropyl)methyl)-1,6-dioxo-1,3,4,6-tetrahydro-2H-pyrido[1,2-a]pyrazine-7-carboxamide] | 0.0077 | 0.205 | 0.509 | – |
| CC1(CS(=O)(=O)C2(CN3CCn4c(ccc(C(=O)NCc5ccc(C#N)cc5)c4=O)C3=O)CC2)COC1 [Example 103-2] | 0.0011 | 0.108 | 1.27 | – |
| O=C(NCc1ccc(Cl)cc1)c1ccc2n(c1=O)CCN(CC1(N3CCCS3(=O)=O)CC1)C2=O [Example 70, N-(4-chlorobenzyl)-2-((1-(1,1-dioxidoisothiazolidin-2-yl)cyclopropyl)methyl)-1,6-dioxo-2,3,4,6-tetrahydro-1H-pyrido[1,2-a]pyrazine-7-carboxamide] | 0.0014 | 0.0281 | 0.0401 | – |
| N#Cc1ccc(CNC(=O)c2ccc3n(c2=O)CCN(CC2(S(=O)(=O)C4CCNC4)CC2)C3=O)cc1 (stereo not drawn) [Example 81-3] | 0.007 | 0.216 | 1.19 | – |
| CNC1(CN2CCn3c(ccc(C(=O)NCc4ccc(Cl)cc4)c3=O)C2=O)CC1 [Example 204, N-(4-chlorobenzyl)-2-((1-(methylamino)cyclopropyl)methyl)-1,6-dioxo-1,3,4,6-tetrahydro-2H-pyrido[1,2-a] pyrazine-7-carboxamide] | 0.156 | 5.47 | 4.04 | – |
| CN(CCN1CCn2c(c(C#CCO)cc(C(=O)NCc3ccc(Cl)cc3)c2=O)C1=O)S(C)(=O)=O [Example 155, N-(4-chlorobenzyl)-9-(3-hydroxyprop-1-yn-1-yl)-2-(2-(N-methylmethylsulfonamido)ethyl)-1,6-dioxo-1,3,4,6-tetrahydro-2H-pyrido[1,2-a]pyrazine-7-carboxamide] | 0.201 | 1.95 | 37.2 | – |
| CS(=O)(=O)NC1(CN2CCn3c(ccc(C(=O)NCc4ccc(Cl)cc4)c3=O)C2=O)CC1 [Example 198] | 0.0372 | 1.5 | 1.68 | – |
| CC(C)(C)S(=O)(=O)C1(CN2CCn3c(ccc(C(=O)NCc4ccc(C#N)cc4)c3=O)C2=O)CC1 [Example 27] | 0.0003 | 0.0252 | 0.0068 | – |
| Cc1cc(C(=O)NCc2ccc(Cl)cc2)c(=O)n2c1C(=O)N(CC1(S(=O)(=O)C3CC3)CC1)CC2 [Example 93-2] | 0.0008 | 0.0286 | 0.0153 | – |
| CS(=O)(=O)C1(CN2CCn3c(ccc(C(=O)NCc4ccc(Cl)c(F)c4)c3=O)C2=O)CC1 [Example 41] | 0.0028 | 0.123 | 0.0429 | – |
| CC1(S(=O)(=O)C2(CN3CCn4c(ccc(C(=O)NCc5ccc(C#N)cc5)c4=O)C3=O)CC2)CC1 [Example 94-1] | 0.0006 | 0.0332 | 0.0133 | – |
| N#Cc1ccc(CNC(=O)c2ccc3n(c2=O)CCN(CC2(S(=O)(=O)C4CC4)CC2)C3=O)cc1F [Example 3-1] | 0.0008 | 0.0381 | 0.0177 | – |
| CC(C)(C#N)S(=O)(=O)C1(CN2CCn3c(ccc(C(=O)NCc4ccc(Cl)cc4)c3=O)C2=O)CC1 [Example 185, N-(4-chlorobenzyl)-2-((1-((2-cyanopropan-2-yl)sulfonyl)cyclopropyl)methyl)-1,6-dioxo-1,3,4,6-tetrahydro-2H-pyrido[1,2-a]pyrazine-7-carboxamide] | 0.0012 | 0.0295 | 0.0189 | – |
| N#Cc1ccc(CNC(=O)c2ccc3n(c2=O)CCN(CC2(S(=O)(=O)C4CC4(F)F)CC2)C3=O)cc1F (stereo not drawn) [Example 98-2] | 0.0012 | 0.0576 | 0.041 | – |
| CN(CCN1CCn2c(c(C3CC3)cc(C(=O)NCc3ccc(Cl)cc3)c2=O)C1=O)S(C)(=O)=O [Example 128, N-(4-chlorobenzyl)-9-cyclopropyl-2-(2-(N-methylmethylsulfonamido)ethyl)-1,6-dioxo-1,3,4,6-tetrahydro-2H-pyrido[1,2-a]pyrazine-7-carboxamide] | 0.153 | 2.56 | 2.38 | – |
| N#Cc1ccc(CNC(=O)c2ccc3n(c2=O)CCN(CC2(S(=O)(=O)C4CCCC4)CC2)C3=O)cc1F [Example 21] | 0.0008 | 0.0354 | 0.058 | – |
| CN(C1(CN2CCn3c(c(F)cc(C(=O)NCc4ccc(Cl)cc4)c3=O)C2=O)CC1)S(C)(=O)=O [Example 166] | 0.173 | 7.7 | 10 | – |

| SMILES | IC50 [1] [µM] | IC50 [2] [µM] | EC50 [3, 4] [µM] | EC50 ([3]; read-out: CMV-Luc Cellular EC50) [µM] |
| --- | --- | --- | --- | --- |
| CS(=O)(=O)C1(CN2CCn3c(ccc(C(=O)NCc4ccc(Cl)cc4)c3=O)C2=O)CC1 [Example 48] | 0.003 | 0.0513 | 0.0333 | – |
| CC(C)S(=O)(=O)C1(CN2CCn3c(ccc(C(=O)NCc4ccc(C#N)c(F)c4)c3=O)C2=O)CC1 [Example 33] | 0.001 | 0.0482 | 0.0331 | – |
| CN1CCC(S(=O)(=O)C2(CN3CCn4c(ccc(C(=O)NCc5ccc(C#N)cc5)c4=O)C3=O)CC2)C1 (stereo not drawn) [Example 81-4] | 0.0233 | 0.474 | 1.08 | – |
| N#Cc1ccc(CNC(=O)c2ccc3n(c2=O)CCN(CC2(S(=O)(=O)C4(CO)CC4)CC2)C3=O)cc1F [Example 12] | 0.0004 | 0.0235 | 0.0197 | – |
| CC(C)(CO)S(=O)(=O)C1(CN2CCn3c(ccc(C(=O)NCc4ccc(Cl)nc4)c3=O)C2=O)CC1 [Example 182] | 0.0027 | 0.0386 | 0.0483 | – |
| O=C(NCc1ccc(Cl)cc1)c1ccc2n(c1=O)CCN(CC1(S(=O)(=O)CCCO)CC1)C2=O [Example 25] | 0.0028 | 0.0808 | 0.0889 | – |
| COCC1(CN2CCn3c(ccc(C(=O)NCc4ccc(Cl)cc4)c3=O)C2=O)CC1 [Example 69, N-(4-chlorobenzyl)-2-((1-(methoxymethyl)cyclopropyl)methyl)-1,6-dioxo-2,3,4,6-tetrahydro-1H-pyrido[1,2-a]pyrazine-7-carboxamide] | 0.656 | 5.25 | 10 | – |
| Cc1cc(C(=O)NCc2ccc(Cl)cc2)c(=O)n2c1C(=O)N(CCS(C)(=O)=O)CC2 [Example 153] | 0.118 | 0.389 | 0.626 | – |
| O=C(NCc1ccc(Cl)cc1)c1ccc2n(c1=O)CCN(CC1(C(=O)N3CCCC3)CC1)C2=O [Example 210] | 0.0257 | 0.428 | 0.494 | – |
| N#Cc1ccc(CNC(=O)c2ccc3n(c2=O)CCN(CC2(S(=O)(=O)C4CNC4)CC2)C3=O)cc1 [Example 18] | 0.0042 | 0.161 | 3 | – |
| CC(=O)N(C)CCN1CCn2c(ccc(C(=O)NCc3ccc(Cl)cc3)c2=O)C1=O [Example 61] | 0.364 | 5.56 | 6.34 | – |
| N#Cc1ccc(CNC(=O)c2cc(F)c3n(c2=O)CCN(CC2(S(=O)(=O)C4CC4)CC2)C3=O)cc1 [Example 161] | 0.0015 | 0.0571 | 0.0599 | – |
| N#Cc1ccc(CNC(=O)c2ccc3n(c2=O)CCN(CC2(S(=O)(=O)[C@H]4CC4(F)F)CC2)C3=O)cc1Cl (single isomer, unassigned) [Example 102-1] | 0.002 | 0.199 | 0.229 | – |
| C[S@+]([O-])C1(CN2CCn3c(ccc(C(=O)NCc4ccc(Cl)cc4)c3=O)C2=O)CC1 (single isomer, unassigned) [Example 67-3, N-(4-chlorobenzyl)-2-((1-(methylsulfinyl)cyclopropyl)methyl)-1,6-dioxo-2,3,4,6-tetrahydro-1H-pyrido[1,2-a]pyrazine-7-carboxamide] | 0.292 | 13.1 | 7.25 | – |
| O=C(NCc1ccc(Cl)cc1)c1ccc2n(c1=O)CCN(CC1(S(=O)(=O)C3CCOCC3)CC1)C2=O [Example 105-1, N-(4-chlorobenzyl)-1,6-dioxo-2-((1-((tetrahydro-2H-pyran-4-yl)sulfonyl)cyclopropyl)methyl)-2,3,4,6-tetrahydro-1H-pyrido[1,2-a]pyrazine-7-carboxamide] | 0.0015 | 0.0397 | 0.0501 | – |
| Cc1cc(C(=O)NCc2ccc(C#N)cc2)c(=O)n2c1C(=O)N(CC1(S(C)(=O)=O)CC1)CC2 [Example 85, N-(4-cyanobenzyl)-9-methyl-2-((1-(methylsulfonyl)cyclopropyl)methyl)-1,6-dioxo-2,3,4,6-tetrahydro-111-pyrido[1,2-a]pyrazine-7-carboxamide] | 0.0047 | 0.103 | – | 0.177 |
| O=C(NCc1ccc(Cl)cc1)c1ccc2n(c1=O)CCN(CCC1CCCS1(=O)=O)C2=O (stereo not drawn) [Example 50-1, N-(4-chlorobenzyl)-2-(2-(1,1-dioxidotetrahydrothiophen-2-yl)ethyl)-1,6-dioxo-2,3,4,6-tetrahydro-1H-pyrido[1,2-a]pyrazine-7-carboxamide] | 0.0356 | 0.188 | 0.306 | – |
